PubChem BioAssay AID248 (DTP/NCI, 2004)
Several values for one entry are separate records, joined by “and”; a condition that tells them apart may be missing. Equal values may be shown once. Inconclusive results and toxic doses are left out. No stated cut-off is given here; in the data, active means T/C of 150% or more; inactive means T/C below 125%.

Test system: L1210 leukemia ip in BDF1 mice, survival T/C
Assay: NCI In Vivo Anticancer Drug Screen. Data for tumor model L1210 Leukemia (intraperitoneal) in B6D2F1 (BDF1) mice
Conditions: endpoint: mean survival time, higher = longer survival
Method in brief: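 Read-out is survival time, reported as the treated-group measurement over the vehicle-control measurement.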

[1] = dose: 25.0 mg/kg/injection, schedule: Q01DX009 (ip), vehicle: saline with Tween-80
[2] = dose: 50.0 mg/kg/injection, schedule: Q01DX009 (ip), vehicle: saline with Tween-80
[3] = dose: 100.0 mg/kg/injection, schedule: Q01DX001 (ip), vehicle: saline with Tween-80
[4] = dose: 100.0 mg/kg/injection, schedule: Q04DX003 (ip), vehicle: saline with Tween-80
[5] = dose: 200.0 mg/kg/injection, schedule: Q01DX001 (ip), vehicle: saline with Tween-80
[6] = dose: 200.0 mg/kg/injection, schedule: Q04DX003 (ip), vehicle: saline with Tween-80
[7] = dose: 400.0 mg/kg/injection, schedule: Q01DX001 (ip), vehicle: saline with Tween-80
[8] = dose: 400.0 mg/kg/injection, schedule: Q04DX003 (ip), vehicle: saline with Tween-80
[9] = dose: 100.0 mg/kg/injection, schedule: Q01DX001 (ip), vehicle: carboxymethylcellulose (CMC)
[10] = dose: 200.0 mg/kg/injection, schedule: Q01DX001 (ip), vehicle: carboxymethylcellulose (CMC)
[11] = dose: 400.0 mg/kg/injection, schedule: Q01DX001 (ip), vehicle: carboxymethylcellulose (CMC)
[12] = dose: 100.0 mg/kg/injection, schedule: Q01DX001 (ip), vehicle: saline
[13] = dose: 200.0 mg/kg/injection, schedule: Q01DX001 (ip), vehicle: saline
[14] = dose: 400.0 mg/kg/injection, schedule: Q01DX001 (ip), vehicle: saline
[15] = dose: 100.0 mg/kg/injection, schedule: Q01DX009 (ip), vehicle: saline with Tween-80
[16] = dose: 100.0 mg/kg/injection, schedule: Q04DX002 (ip), vehicle: saline with Tween-80
[17] = dose: 200.0 mg/kg/injection, schedule: Q01DX009 (ip), vehicle: saline with Tween-80
[18] = dose: 400.0 mg/kg/injection, schedule: Q01DX009 (ip), vehicle: saline with Tween-80

Measured: T/C

O=C(/C=C/c1ccccc1)NC(=S)Nc1cccc2ccccc12
inactive: [1] 96 % of control and 90 % of control | [2] 94 % of control | [3] 93 % of control | dose: 100.0 mg/kg/injection, schedule: Q04DX002 (ip), vehicle: alcohol 87 % of control | [4] 86 % of control | [5] 97 % of control | dose: 200.0 mg/kg/injection, schedule: Q04DX002 (ip), vehicle: alcohol 97 % of control | [6] 100 % of control | [7] 93 % of control | dose: 400.0 mg/kg/injection, schedule: Q04DX002 (ip), vehicle: alcohol 93 % of control | [8] 105 % of control

Brc1ccc(N=C2NN=CC2(c2ccccc2)c2ccccc2)cc1
inactive: [9] 94 % of control | [10] 88 % of control | [11] 88 % of control

C1CC(CCN2CCOCC2)CCN1
inactive: [12] 98 % of control | [13] 107 % of control | [14] 105 % of control

O=C(O)c1cccnc1.[Cu+2]
inactive: dose: 9.5 mg/kg/injection, schedule: Q01DX001 (ip), vehicle: other 97 % of control | dose: 19.0 mg/kg/injection, schedule: Q01DX001 (ip), vehicle: other 97 % of control | dose: 38.0 mg/kg/injection, schedule: Q01DX001 (ip), vehicle: other 100 % of control

OCC1OC(n2cnc3c([Se])ncnc32)C(O)C1O (stereo not drawn)
inactive: dose: 100.0 mg/kg/injection, schedule: Q01DX005 (ip), vehicle: saline 105 % of control

Cc1cc(=O)[nH]c(=O)n1Cc1ccccc1
inactive: dose: 100.0 mg/kg/injection, schedule: Q01DX001 (ip), vehicle: Klucel (hydroxypropylcellulose) (HPC) 117 % of control | dose: 200.0 mg/kg/injection, schedule: Q01DX001 (ip), vehicle: Klucel (hydroxypropylcellulose) (HPC) 117 % of control | dose: 400.0 mg/kg/injection, schedule: Q01DX001 (ip), vehicle: Klucel (hydroxypropylcellulose) (HPC) 122 % of control

CCOC(=O)c1nc(SCc2ccccc2)n(Cc2ccccc2)c1C(=O)OCC
inactive: [3] 109 % of control | [15] 104 % of control and 107 % of control | [16] 102 % of control and 108 % of control | [4] 91 % of control | [5] 101 % of control | [17] 102 % of control and 111 % of control | dose: 200.0 mg/kg/injection, schedule: Q04DX002 (ip), vehicle: saline with Tween-80 101 % of control and 87 % of control | [6] 107 % of control | [7] 95 % of control | [18] 101 % of control and 102 % of control | dose: 400.0 mg/kg/injection, schedule: Q04DX002 (ip), vehicle: saline with Tween-80 97 % of control and 104 % of control | [8] 101 % of control

O=C1NC(=O)C2C3C(C(O)(c4ccccc4)c4ccccn4)=CC(/C3=C(\c3ccccc3)c3ccccn3)C12 (stereo not drawn)
inactive: dose: 0.5 mg/kg/injection, schedule: Q01DX010 (ip), vehicle: saline 101 % of control | dose: 1.0 mg/kg/injection, schedule: Q01DX010 (ip), vehicle: saline 93 % of control | dose: 2.0 mg/kg/injection, schedule: Q01DX010 (ip), vehicle: saline 101 % of control | dose: 2.0 mg/kg/injection, schedule: Q01DX010 (oral), vehicle: saline 96 % of control | dose: 4.0 mg/kg/injection, schedule: Q01DX010 (ip), vehicle: saline 93 % of control | dose: 4.0 mg/kg/injection, schedule: Q01DX010 (oral), vehicle: saline 96 % of control | dose: 8.0 mg/kg/injection, schedule: Q01DX010 (oral), vehicle: saline 96 % of control | dose: 16.0 mg/kg/injection, schedule: Q01DX010 (oral), vehicle: saline 96 % of control | [9] 98 % of control | [10] 102 % of control | [11] 104 % of control

CCC1(Br)OC1=O (stereo not drawn)
inactive: dose: 50.0 mg/kg/injection, schedule: Q01DX009 (ip), vehicle: acetone 100 % of control | dose: 100.0 mg/kg/injection, schedule: Q01DX009 (ip), vehicle: acetone 99 % of control | dose: 100.0 mg/kg/injection, schedule: Q04DX003 (ip), vehicle: acetone 97 % of control | dose: 200.0 mg/kg/injection, schedule: Q04DX003 (ip), vehicle: acetone 98 % of control

CSc1ccc(NC(=O)Nc2ccc(N=Nc3ccccc3)cc2)cc1
inactive: dose: 12.5 mg/kg/injection, schedule: Q01DX009 (ip), vehicle: saline with Tween-80 95 % of control | [1] 92 % of control | [2] 95 % of control | dose: 50.0 mg/kg/injection, schedule: Q04DX003 (ip), vehicle: Klucel (hydroxypropylcellulose) (HPC) 87 % of control | dose: 75.0 mg/kg/injection, schedule: Q01DX009 (ip), vehicle: saline with Tween-80 106 % of control | dose: 100.0 mg/kg/injection, schedule: Q01DX001 (ip), vehicle: other 89 % of control | dose: 115.0 mg/kg/injection, schedule: Q01DX009 (ip), vehicle: saline with Tween-80 92 % of control | dose: 170.0 mg/kg/injection, schedule: Q01DX009 (ip), vehicle: saline with Tween-80 90 % of control | dose: 200.0 mg/kg/injection, schedule: Q01DX001 (ip), vehicle: other 89 % of control

CNCCC(=O)NCC1C(c2ccccc2)C1c1ccccc1 (stereo not drawn)
inactive: dose: 6.25 mg/kg/injection, schedule: Q04DX002 (ip), vehicle: saline with Tween-80 97 % of control | dose: 12.5 mg/kg/injection, schedule: Q04DX002 (ip), vehicle: saline with Tween-80 93 % of control and 96 % of control | dose: 25.0 mg/kg/injection, schedule: Q04DX002 (ip), vehicle: saline with Tween-80 100 % of control | dose: 50.0 mg/kg/injection, schedule: Q04DX002 (ip), vehicle: saline with Tween-80 91 % of control | [16] 93 % of control and 88 % of control

O=P(c1ccccc1)(c1ccccc1)C(Nc1ccc(Cl)cc1)c1ccco1 (stereo not drawn)
inactive: dose: 400.0 mg/kg/injection, schedule: Q01DX009 (ip), vehicle: gum acacia 92 % of control

CCC(C)NCCOC(=O)C(c1ccccc1)c1ccccc1 (stereo not drawn)
inactive: dose: 75.0 mg/kg/injection, schedule: Q01DX001 (ip), vehicle: other 93 % of control

Cc1ccc(N2CCN(CC(O)COc3ccccc3Cl)CC2)cc1 (stereo not drawn)
inactive: [12] 95 % of control | [13] 95 % of control | [14] 95 % of control

O=C(O)/C(Br)=C/C(=O)c1ccccc1
inactive: dose: 75.0 mg/kg/injection, schedule: Q01DX001 (ip), vehicle: steriod suspending solution 106 % of control | dose: 300.0 mg/kg/injection, schedule: Q01DX001 (ip), vehicle: steriod suspending solution 109 % of control

Cc1ccc(S(=O)(=O)N2CCC(C(=O)O)(c3ccccc3)CC2)cc1
inactive: [15] 117 % of control | [17] 101 % of control | [18] 95 % of control

NCCOc1ccccn1
inactive: dose: 100.0 mg/kg/injection, schedule: Q04DX002 (ip), vehicle: saline 111 % of control | dose: 200.0 mg/kg/injection, schedule: Q04DX002 (ip), vehicle: saline 101 % of control | dose: 400.0 mg/kg/injection, schedule: Q04DX002 (ip), vehicle: saline 101 % of control

O=CC(CO)C(C=O)n1ncc2ccccc21 (stereo not drawn)
inactive: dose: 50.0 mg/kg/injection, schedule: Q01DX005 (ip), vehicle: water 112 % of control

CC1CC(C)(C)CC2(C1)OCCCO2 (stereo not drawn)
inactive: [2] 90 % of control | [15] 102 % of control | [17] 98 % of control

Cn1c(=O)c2c(ncn2CCOC(=O)C(C)(C)Oc2ccc(Cl)cc2)n(C)c1=O
inactive: dose: 100.0 mg/kg/injection, schedule: Q01DX009 (ip), vehicle: Klucel (hydroxypropylcellulose) (HPC) 92 % of control | dose: 100.0 mg/kg/injection, schedule: Q04DX003 (ip), vehicle: Klucel (hydroxypropylcellulose) (HPC) 90 % of control | dose: 200.0 mg/kg/injection, schedule: Q01DX009 (ip), vehicle: Klucel (hydroxypropylcellulose) (HPC) 105 % of control | dose: 200.0 mg/kg/injection, schedule: Q04DX003 (ip), vehicle: Klucel (hydroxypropylcellulose) (HPC) 96 % of control | dose: 400.0 mg/kg/injection, schedule: Q04DX003 (ip), vehicle: Klucel (hydroxypropylcellulose) (HPC) 93 % of control

O=c1ccc2nc3ccccc3sc-2c1
inactive: [4] 89 % of control
